In the experiment the target is T1, recombinant human Cyp19 enzyme (Homo sapiens, UniProt P11511).
T1 construct: purchased Becton Dickinson Biosciences, San Jose, Calif., USA
T1 sequence (P11511 1-503): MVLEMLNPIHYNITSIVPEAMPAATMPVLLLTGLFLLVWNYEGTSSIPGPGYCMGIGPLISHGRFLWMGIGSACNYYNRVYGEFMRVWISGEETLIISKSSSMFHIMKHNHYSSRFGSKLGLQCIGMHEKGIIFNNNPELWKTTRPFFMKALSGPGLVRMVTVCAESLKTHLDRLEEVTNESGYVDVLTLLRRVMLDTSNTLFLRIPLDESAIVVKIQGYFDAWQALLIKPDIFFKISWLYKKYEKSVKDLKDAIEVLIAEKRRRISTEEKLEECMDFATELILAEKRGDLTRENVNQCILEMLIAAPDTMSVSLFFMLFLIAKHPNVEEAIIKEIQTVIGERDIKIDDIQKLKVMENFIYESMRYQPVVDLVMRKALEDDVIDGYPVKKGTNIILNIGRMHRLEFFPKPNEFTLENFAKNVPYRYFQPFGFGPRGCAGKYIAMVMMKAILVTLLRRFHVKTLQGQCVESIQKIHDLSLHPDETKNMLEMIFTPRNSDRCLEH
Briefly: Cyp19/methoxy-4-trifluoromethyl-coumarin (MFC) high throughput inhibition kit. The class given is biochemical. The note with it: Cyp19 supersomes, MFC substrate. The method, then: A compound of formula (I) is to be understood as a compound having a specific configuration around the designated asymmetric carbon atom labelled “*”. If a synthesis method is used which leads to racemic compounds, the racemate resolution is carried out in accordance with conventional methods, such as via a chiral HPLC column. […] The aforementioned activity can, readily and as described below, be determined by using a commercial Cyp19 enzyme inhibition kit, preferably the Cyp19/methoxy-4-trifluoromethyl-coumarin (MFC) high throughput inhibition kit (Becton Dickinson Biosciences, San Jose, Calif., USA) as described hereafter. In the above-mentioned inhibition kit, compounds of the formula (I) show an inhibiting activity which is at least 10 times higher, but preferably 20 times higher, or more preferably 40 times higher, than the substances of the formula (I) with the opposite configuration around the asymmetric carbon atom labelled “*”. A higher inhibiting activity corresponds to a lower IC50 value.
These effects are demonstrable in in vitro assay tests using cell-free and cellular systems. […] The Cyp19/Methoxy-4-trifluoromethyl-coumarin (MFC) high throughput inhibition kit (Becton Dickinson Biosciences, San Jose, Calif., USA), for example, is designed to screen for potential inhibitors of Cyp19 catalytic activity in a 96-well format. […]

By IC50 is commonly meant the concentration that gives 50% inhibition.

With `N#Cc1ccc(C2OCCn3cncc32)cc1` (stereo not shown) [antipode of 1], the IC50 stood at 2.77 µM.

Values taken from patent US7795253B2, “Condensed imidazole derivatives as aromatase inhibitors” (Novartis AG, priority 2006, dated 2010).
